Measured values as given in the supplement of paper PMC11451515.

Tested on: SEM cells
Test: cell viability relative to DMSO control; higher = less cytotoxic
Conditions: 48 h
In short: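 Viability is a per-plate percentage relative to DMSO wells, with cell-free wells as background. CellTiter-Glo One luminescence was read after 48 h at 37°C on 1536-well plates (5 μl) of NOMO1 or SEM (500 cells/well) or P12-Ichikawa (1000 cells/well) leukemia cells. The cells had been adapted for at least four passages in each medium and pin-dosed with library compounds in DMSO from 47 μM to 0.79 nM in 11 threefold steps.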

[1] = HPLM + 10% dialyzed FBS, 0.000781 µM
[2] = HPLM + 10% dialyzed FBS, 0.00234 µM
[3] = HPLM + 10% dialyzed FBS, 0.00702 µM
[4] = HPLM + 10% dialyzed FBS, 0.0211 µM
[5] = HPLM + 10% dialyzed FBS, 0.0632 µM
[6] = HPLM + 10% dialyzed FBS, 0.19 µM
[7] = HPLM + 10% dialyzed FBS, 0.569 µM
[8] = HPLM + 10% dialyzed FBS, 1.71 µM
[9] = HPLM + 10% dialyzed FBS, 5.12 µM
[10] = HPLM + 10% dialyzed FBS, 15.4 µM
[11] = HPLM + 10% dialyzed FBS, 46.1 µM
[12] = RPMI 5 mM glucose + 10% FBS, 0.000781 µM
[13] = RPMI 5 mM glucose + 10% FBS, 0.00234 µM
[14] = RPMI 5 mM glucose + 10% FBS, 0.00702 µM
[15] = RPMI 5 mM glucose + 10% FBS, 0.0211 µM
[16] = RPMI 5 mM glucose + 10% FBS, 0.0632 µM
[17] = RPMI 5 mM glucose + 10% FBS, 0.19 µM
[18] = RPMI 5 mM glucose + 10% FBS, 0.569 µM
[19] = RPMI 5 mM glucose + 10% FBS, 1.71 µM
[20] = RPMI 5 mM glucose + 10% FBS, 5.12 µM
[21] = RPMI 5 mM glucose + 10% FBS, 15.4 µM
[22] = RPMI 5 mM glucose + 10% FBS, 46.1 µM
[23] = RPMI 5 mM glucose + 10% dialyzed FBS, 0.000781 µM
[24] = RPMI 5 mM glucose + 10% dialyzed FBS, 0.00234 µM
[25] = RPMI 5 mM glucose + 10% dialyzed FBS, 0.00702 µM
[26] = RPMI 5 mM glucose + 10% dialyzed FBS, 0.0211 µM
[27] = RPMI 5 mM glucose + 10% dialyzed FBS, 0.0632 µM
[28] = RPMI 5 mM glucose + 10% dialyzed FBS, 0.19 µM
[29] = RPMI 5 mM glucose + 10% dialyzed FBS, 0.569 µM
[30] = RPMI 5 mM glucose + 10% dialyzed FBS, 1.71 µM
[31] = RPMI 5 mM glucose + 10% dialyzed FBS, 5.12 µM
[32] = RPMI 5 mM glucose + 10% dialyzed FBS, 15.4 µM
[33] = RPMI 5 mM glucose + 10% dialyzed FBS, 46.1 µM

| Structure (SMILES) | cell viability [1] | cell viability [2] | cell viability [3] | cell viability [4] | cell viability [5] | cell viability [6] | cell viability [7] | cell viability [8] | cell viability [9] | cell viability [10] | cell viability [11] | cell viability [12] | cell viability [13] | cell viability [14] | cell viability [15] | cell viability [16] | cell viability [17] | cell viability [18] | cell viability [19] | cell viability [20] | cell viability [21] | cell viability [22] | cell viability [23] | cell viability [24] | cell viability [25] | cell viability [26] | cell viability [27] | cell viability [28] | cell viability [29] | cell viability [30] | cell viability [31] | cell viability [32] | cell viability [33] |
| --- | --- | --- | --- | --- | --- | --- | --- | --- | --- | --- | --- | --- | --- | --- | --- | --- | --- | --- | --- | --- | --- | --- | --- | --- | --- | --- | --- | --- | --- | --- | --- | --- | --- |
| O=C(CO)N1CCC(c2n[nH]c(-c3ccc(Cl)cc3)c2-c2ccncn2)CC1 | 102% | 119% | 119% | 112% | 110% | 104% | 98.7% | 101% | 75.6% | 64.9% | 31% | 114% | 128% | 123% | 127% | 107% | 123% | 109% | 106% | 85.3% | 49.4% | 16% | 131% | 108% | 108% | 141% | 110% | 119% | 128% | 100% | 79.7% | 51.5% | 20.1% |
| COc1cc(O)c2c(c1)C1OC1C[C@H](O)[C@H](O)C(=O)/C=C\C[C@H](C)OC2=O (some centres undefined) | 95.5% | 93.1% | 111% | 108% | 125% | 125% | 101% | 114% | 55.5% | 31.4% | 7.96% | 101% | 103% | 108% | 86.9% | 114% | 108% | 117% | 101% | 58% | 30.7% | 4.26% | 101% | 119% | 117% | 127% | 109% | 121% | 102% | 110% | 47.6% | 24.4% | 5.3% |
| Oc1ccc(C2CCN(c3ccnc4ccccc34)CC2)cc1O | 55.8% | 98.9% | 88.8% | 93.5% | 118% | 94.1% | 95.4% | 89.5% | 76.6% | 56.3% | 30.7% | 56.9% | 98% | 93.6% | 94.6% | 106% | 116% | 96.7% | 83% | 62.3% | 43.9% | 13.6% | 54.9% | 92.2% | 97.3% | 114% | 114% | 115% | 88.7% | 96.2% | 59.1% | 45.9% | 39.2% |
| O=C(Nc1cccc(Nc2ncc(Br)c(NCCc3cnc[nH]3)n2)c1)N1CCCC1 | 77.4% | 78.4% | 79.3% | 72.1% | 67.4% | 47.5% | 32.7% | 17.4% | 9.22% | 5.65% | 1.1% | 87.7% | 77.9% | 80.5% | 75.9% | 69.1% | 41% | 21.1% | 8.73% | 3.21% | 1.59% | 1.07% | 82.5% | 62.9% | 71% | 64.2% | 66.9% | 38.6% | 26.6% | 12.8% | 7.16% | 3.89% | 1.39% |
| CC1(C)OC2CC3C4CC(F)C/5=C/C(=O)/C=C\C5(C)C4C(O)CC3(C)[C@@]2(O1)C(=O)CO (some centres undefined) | 97.4% | 95.3% | 95.6% | 102% | 94.6% | 85.9% | 77.2% | 65.9% | 65.7% | 33.9% | 71.1% | 91.4% | 98.9% | 104% | 105% | 101% | 77.5% | 60.7% | 56% | 59.6% | 20.5% | 60.3% | 109% | 95.4% | 122% | 125% | 106% | 78% | 75.4% | 62.7% | 55.9% | 26% | 61.6% |
| CC(=O)Nc1ccc([C@H](C)C(=O)Nc2ncc(C(C)C)s2)cc1 | 98.9% | 102% | 106% | 95.9% | 104% | 105% | 105% | 95.1% | 61.9% | 8.42% | 4.85% | 107% | 112% | 132% | 121% | 117% | 108% | 123% | 114% | 76% | 8.73% | 4.33% | 95.6% | 79.1% | 97.4% | 97.2% | 109% | 97.2% | 110% | 99.2% | 64.6% | 8.82% | 4.36% |
| NC(=O)c1ncn([C@@H]2O[C@H](CO)[C@@H](O)[C@H]2O)n1 | 96.4% | 110% | 116% | 119% | 104% | 106% | 101% | 106% | 117% | 117% | 80.4% | 105% | 115% | 118% | 115% | 112% | 115% | 95.2% | 95.9% | 103% | 123% | 76.9% | 106% | 118% | 121% | 110% | 113% | 108% | 104% | 118% | 111% | 142% | 85.7% |
| Cc1ncc(OC[C@@]2(c3cccc(F)c3)C[C@H]2C(=O)Nc2ccc(F)cn2)c(C)n1 | 75.3% | 84.5% | 97.6% | 96% | 95.3% | 91.7% | 105% | 96% | 98.3% | 98.7% | 78.3% | 113% | 111% | 102% | 104% | 103% | 133% | 136% | 51.1% | 97.3% | 88.4% | 104% | 85.3% | 107% | 98.1% | 90.8% | 100% | 104% | 108% | 118% | 122% | 108% | 82.6% |
